Measured values taken from ChEMBL document CHEMBL1201862, “PubChem BioAssay data set” (2004).
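Each compound was tested at five concentrations against cells in 96-well plates for 48 hours. Here, GI50 denotes the concentration required for 50% inhibition of growth.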 Activity calls are given as the source filed them. No stated cut-off is given here; in the data, active = GI50 up to about 1.1 µM and inactive = higher.

How the values were obtained:
Assay in all cases: growth of human tumour cells (NCI), 48 h
[1] = system: MCF7
[2] = system: UO-31
[3] = system: SW-620
[4] = system: 786-0
[5] = system: SR
[6] = system: SNB-19
[7] = system: NCI-H460
[8] = system: PC-3
[9] = system: CAKI-1
[10] = system: MDA-MB-231
[11] = system: BT-549
[12] = system: SK-MEL-5
[13] = system: NCI-H23
[14] = system: M14
[15] = system: DU-145
[16] = system: NCI/ADR-RES
[17] = system: SK-MEL-28
[18] = system: HOP-62
[19] = system: LOX IMVI
[20] = system: SK-OV-3

Measured: GI50

C=C(C)[C@H]1CC23C(=O)C(C(=O)C(C)C)=C(O)[C@](C)(C[C@H]2C1(C)C)C3=O [LALIBINONE B]
inactive: [1] 15.3 µM | [2] 18.3 µM | [3] 17.8 µM | [4] 15.6 µM | [5] 14.5 µM | [6] 25.8 µM | [7] 17 µM | [8] 12.6 µM | [9] 22 µM | [10] 15.6 µM | [11] 17.5 µM | [12] 17.7 µM | [13] 18.9 µM | [14] 16.1 µM | [15] 35.7 µM | [16] 13.1 µM | [17] 15 µM | [18] 15.6 µM | [19] 20.7 µM

O=C(c1ccco1)N(C(=O)N1CCN(c2ccccc2)CC1)S(=O)(=O)c1ccccc1
inactive: [1] 29.4 µM | [2] 21.9 µM | [3] 38.5 µM | [4] 32.1 µM | [5] 23.8 µM | [6] 27.7 µM | [7] 32.3 µM | [8] 28.6 µM | [9] 22.8 µM | [10] 36.9 µM | [11] 32.7 µM | [12] 24.4 µM | [13] 23.7 µM | [14] 23 µM | [20] > 100 µM | [15] 43.7 µM | [16] 23.2 µM | [17] 39.2 µM | [18] 39.1 µM

COC(=O)C1C(O)C(C)C(O)C(C)C=C(C)C2=C3C(=C(C)C(=O)c4c(O)c(c(C)c(OC(C)=O)c43)NC(=O)C(C)=C/C=C\C(C)C(O)C(C)C1O)OCO2 (stereo not given)
inactive: [1] 25.3 µM | [2] 25.9 µM | [3] 23.9 µM | [4] 57.1 µM | [5] 19.7 µM | [6] > 100 µM | [7] 67.5 µM | [8] 22.8 µM | [10] 23.8 µM | [11] 19.6 µM | [12] 19.9 µM | [13] 24.9 µM | [14] 25.2 µM | [20] > 100 µM | [15] 57.7 µM | [16] 40.5 µM | [17] 22.3 µM | [18] > 100 µM | [19] 17.1 µM

C/C=C1\C(=O)O[C@H]2C/C(C)=C/CC/C(C)=C/CC[C@@]3(C)O[C@@H]3C[C@@H]12
inactive: [1] > 100 µM | [2] > 100 µM | [3] > 100 µM | [4] > 100 µM | [5] 37.8 µM | [6] 36.8 µM | [7] 46.1 µM | [8] > 100 µM | [9] > 100 µM | [10] > 100 µM | [11] 69.5 µM | [12] > 100 µM | [14] > 100 µM | [20] > 100 µM | [15] > 100 µM | [16] > 100 µM | [17] > 100 µM | [18] > 100 µM
